Results from article PMC10703884, “Targeting the COMMD4–H2B protein complex in lung cancer” (British Journal of Cancer, 2023).
No end group written: not given here.

What was measured:
[1] = tested on: H460, H1299 and CRL5889 NSCLC cells; assay: Clonogenic cell viability after IR, NSCLC cells; assay type: cell-based; conditions: varying IR doses, 7–10 days recovery, three independent experiments, compared to control siRNA or FLAG-H2BMUT1/mock
Experimental: (§1) H1299, CRL5889 and H460 cells were cultured in Roswell Park Memorial Institute (RPMI) 1640 medium (Life Technologies) containing 10% foetal bovine serum (Thermo Fisher Scientific). Human bronchial epithelial cells (HBEC3-KT) were maintained in keratinocyte serum-free medium supplemented with epidermal growth factor and bovine pituitary extract (Life Technologies). The histology features and origin of all cell lines used have been previously described. Cell lines were authenticated using STR profiling. Cells were grown in a humidified incubator at 37 °C/5% CO2 atmosphere. All cell lines were verified to be free of mycoplasma contamination.
(§2) Irradiations were done at room temperature using a ^137Cs source (Gammacell 40 Exactor [MDS Nordion]; dose rate 1.1 Gy/min). Phalloidin-Atto 488 was purchased from Sigma-Aldrich and Hoechst 33342 was purchased from Thermo Fisher Scientific.
(§3) For siRNA transfections, cells were transfected with negative control or COMMD4 siRNA #2 (CCAUGUCCCUCUCAGCAGA[dT][dT] MISSION® siRNA, Sigma-Aldrich) using RNAiMax (Life Technologies) as previously described and samples were analysed 48 to 72 h post-transfection. […] Cells were mock-transfected, or transfected with FLAG-H2BWT/FLAG-H2BMUT1, or COMMD4-FLAG/A70K with FuGENE® HD (Promega) using the manufacturer’s protocol and analysed 24 h post-transfection. […]

NSCLC cells = assay: Immunofluorescence γH2AX and MDC1 foci, NSCLC cells; assay type: cell-based; conditions: 6 Gy IR, 0.5 to 2 h post-IR, 50 cells per condition, three independent experiments
Experimental: For siRNA transfections, cells were transfected with negative control or COMMD4 siRNA #2 (CCAUGUCCCUCUCAGCAGA[dT][dT] MISSION® siRNA, Sigma-Aldrich) using RNAiMax (Life Technologies) as previously described and samples were analysed 48 to 72 h post-transfection. The H2B wild-type (FLAG-H2BWT) and mutant (FLAG-H2BMUT1) expression constructs were generated with the 10-amino acid peptide and the corresponding mutant cloned into the expression vector pCDNA3.1/(+)-N-DYK containing an N-terminal FLAG tag and a C-terminal nuclear localisation signal (AAKRVKLDS) (GenScript). A70K FLAG-COMMD4 expression construct was generated by mutating the corresponding COMMD4-FLAG construct to harbour an A70K mutation (GenScript). Cells were mock-transfected, or transfected with FLAG-H2BWT/FLAG-H2BMUT1, or COMMD4-FLAG/A70K with FuGENE® HD (Promega) using the manufacturer’s protocol and analysed 24 h post-transfection.
NSCLC and control cells transfected with siRNA or H2B plasmids were grown in optical glass bottom 96-well plates (Cellvis). Post-treatment, cells were pre-extracted with ice-cold extraction buffer (20 mM HEPES (pH 8), 20 mM NaCl, 5 mM MgCl2, 1 mM ATP, 0.5% NP40), to remove the soluble proteins and processed as previous. Images were captured using a Delta Vision PDV microscope 100x/1.42 Oil objective (Applied Precision, Inc). All immunofluorescence figures were assembled using Adobe Photoshop. High-content microscopy was performed using the InCell Analyzer 6500 Imaging System (GE Healthcare Life Sciences). Images were analysed using the InCarta Image Analysis software (GE Healthcare Life Sciences) where a minimum of 50 nuclei were quantified per experiment.
Fig. 4 Induction of DSBs in NSCLC and control cells. a Immunofluorescence staining of H1299 NSCLC cells transfected with control or COMMD4 siRNA #2 and FLAG-H2BWT or FLAG-H2BMUT1 is shown. […]
independent experiments where 50 cells were quantified per condition. γH2AX is shown in […]
mean ± SD from three independent experiments where 50 cells were quantified per condition.

HBEC3-KT cells [2] = assay: CellTiter-Glo 2.0 luminescent cell viability after IR, HBEC3-KT cells; assay type: cell-based, Human; conditions: CellTiter-Glo 2.0, 48 h post-irradiation, three independent experiments
Experimental: as §1
Irradiations were done at room temperature using a ^137Cs source (Gammacell 40 Exactor [MDS Nordion]; dose rate 1.1 Gy/min). […]
For siRNA transfections, cells were transfected with negative control or COMMD4 siRNA #2 (CCAUGUCCCUCUCAGCAGA[dT][dT] MISSION® siRNA, Sigma-Aldrich) using RNAiMax (Life Technologies) as previously described and samples were analysed 48 to 72 h post-transfection. […] Cells were mock-transfected, or transfected with FLAG-H2BWT/FLAG-H2BMUT1, or COMMD4-FLAG/A70K with FuGENE® HD (Promega) using the manufacturer’s protocol and analysed 24 h post-transfection.
A CellTiter-Glo 2.0 Luminescent assay (Promega Corporation) was carried out as previously described. […] Luminescence was measured using a PHERAstar FSX detection system (BMG Labtech). […]

HBEC3-KT cells [3] = assay: Clonogenic cell viability after IR, HBEC3-KT cells; assay type: cell-based, Human; conditions: varying IR doses, 7–10 days recovery, three independent experiments
Experimental: as §1, §2, §3

In the case of “FLAG-H2BWT: 10-amino acid peptide cloned into expression vector containing an N-terminal FLAG tag and a C-terminal nuclear localisation signal ({FLAG}-SFVNDIFERIAAKRVKLDS)”, the “sensitivity to ionising radiation (clonogenic viability)” value [1] was “resulted in a similar phenotype to COMMD4 siRNA depletion, albeit less pronounced, where hypersensitivity to IR was observed relative to cells expressing the mutant peptide (FLAG-H2BMUT1)”, the “γH2AX and MDC1 (DNA repair) foci” value (NSCLC cells) was “significantly more DNA repair foci” and the “sensitivity to ionising radiation (luminescent viability)” value (HBEC3-KT cells [2]) was “not hypersensitive”. For the same substance, the “sensitivity to ionising radiation (clonogenic viability)” value (HBEC3-KT cells [3]) was “neither hypersensitive to IR”.
